Our source for the MIC and mortality values is ChEMBL document CHEMBL4431305, “Chermesins A-D: Meroterpenoids with a Drimane-Type Spirosesquiterpene Skeleton from the Marine Algal-Derived Endophytic Fungus Penicillium chermesinum EN-480” (J Nat Prod, 2016).

The subject of data set [1] is Candida albicans. As to the kind of experiment: Antimicrobial activity against Candida albicans by microplate assay. The data set is classed as functional.
Data set [2] deals with Escherichia coli. As to the kind of experiment: Antimicrobial activity against Escherichia coli by microplate assay. It counts as functional.
Data set [3] can be described thus: Toxicity in Artemia salina assessed as lethality at 100 ug/ml measured after 6 to 24 hrs. It counts as organism-based. To be noted: in vivo.
The subject of data set [4] is Micrococcus luteus. As to the kind of experiment: Antimicrobial activity against Micrococcus luteus by microplate assay. It counts as functional.
For data set [5], the system named is Vibrio alginolyticus. Nature of the data set: Antimicrobial activity against Vibrio alginolyticus by microplate assay. The data set is classed as functional.

Converted amounts (≈) assume the structure as drawn. The source made the active and inactive calls. No cut-off for these calls is given here.

For `CC1=CC(=O)C(C)=C2O[C@@]3(C[C@]12C)[C@@H](C)CC[C@H]1C(C)(C)C(=O)CC[C@@]13C`, the MIC in data set [1] came to 64 µg/mL (≈ 173 µM); in data set [2], 64 µg/mL (≈ 173 µM); in data set [4] it was 8 µg/mL (≈ 21.6 µM); in data set [5], 64 µg/mL (≈ 173 µM). Moreover, in data set [3], the mortality at 100 ug/ml was below 60%.
For the compound `COC(=O)[C@@H]1C(=O)C(C)=C2O[C@@]3(C[C@]2(C)[C@H]1C)[C@@H](C)[C@@H](O)C[C@H]1C(C)(C)[C@@H](O)CC[C@@]13C`, the MIC result in data set [1], in data set [2], in data set [4] and in data set [5] was “inactive” each time. Also, in data set [3], the mortality at 100 ug/ml was below 60%.
As to `CC1=C2O[C@@]3(C[C@]2(C)C(C)=C(C(=O)O)C1=O)[C@@H](C)CC[C@H]1C(C)(C)C(=O)CC[C@@]13C`, the MIC result in data set [1], in data set [4] and in data set [5] was “inactive” throughout. In data set [2], this compound had an MIC of 64 µg/mL (≈ 154 µM). In addition, the mortality at 100 ug/ml in data set [3] is below 60%.
Regarding `O=C(N[C@H](CO)[C@H](O)c1ccc([N+](=O)[O-])cc1)C(Cl)Cl` [CHLORAMPHENICOL], the figures for the MIC in data set [2], in data set [4] and in data set [5] were 2 µg/mL (≈ 6.19 µM), 2 µg/mL (≈ 6.19 µM) and 4 µg/mL (≈ 12.4 µM), respectively.
Turning to `CC1=CC(=O)C(C)=C2O[C@@]3(C[C@]12C)[C@@H](C)CC[C@H]1C(C)(C)[C@@H](O)CC[C@@]13C`, the MIC in data set [1] is 32 µg/mL (≈ 85.9 µM); in data set [2] it was 32 µg/mL (≈ 85.9 µM); in data set [4], 8 µg/mL (≈ 21.5 µM); in data set [5], 32 µg/mL (≈ 85.9 µM). Also, the mortality at 100 ug/ml in data set [3] is below 60%.
As to `C[C@@H]1[C@H](O)[C@@H](C)/C=C/C=C/C=C/C=C/C=C/C=C/C=C/[C@H](O[C@@H]2O[C@H](C)[C@@H](O)[C@H](N)[C@@H]2O)C[C@@H]2O[C@](O)(C[C@@H](O)C[C@@H](O)[C@H](O)CC[C@@H](O)C[C@@H](O)CC(=O)O[C@H]1C)C[C@H](O)[C@H]2C(=O)O` [AMPHOTERICIN B], it took 2 µg/mL (≈ 2.16 µM) to inhibit growth in data set [1] (MIC).

Broadly, the MIC is the lowest concentration that inhibits growth of the organism. As a reminder, the mortality is the percentage killed.
